Assay results taken from US20150087627A1, “COMBINATION OF KINASE INHIBITORS AND USES THEREOF” (Intellikine LLC, priority 2011, published 2015).
pIC50: −log10 of the molar value. Where two headings read alike, the source gives them in different places.

Assays:
Format in all cases: biochemical
PI3K α (p110α/p85α) = target: T1, PI3K α (p110α/p85α) (Homo sapiens, UniProt P42336); test: PI 3-Kinase (human) HTRF assay, PI3K α; conditions: read-out: PI3K α IC50
T1 construct: purchased Upstate / Millipore Corporation
T1 sequence (P42336 whole entry): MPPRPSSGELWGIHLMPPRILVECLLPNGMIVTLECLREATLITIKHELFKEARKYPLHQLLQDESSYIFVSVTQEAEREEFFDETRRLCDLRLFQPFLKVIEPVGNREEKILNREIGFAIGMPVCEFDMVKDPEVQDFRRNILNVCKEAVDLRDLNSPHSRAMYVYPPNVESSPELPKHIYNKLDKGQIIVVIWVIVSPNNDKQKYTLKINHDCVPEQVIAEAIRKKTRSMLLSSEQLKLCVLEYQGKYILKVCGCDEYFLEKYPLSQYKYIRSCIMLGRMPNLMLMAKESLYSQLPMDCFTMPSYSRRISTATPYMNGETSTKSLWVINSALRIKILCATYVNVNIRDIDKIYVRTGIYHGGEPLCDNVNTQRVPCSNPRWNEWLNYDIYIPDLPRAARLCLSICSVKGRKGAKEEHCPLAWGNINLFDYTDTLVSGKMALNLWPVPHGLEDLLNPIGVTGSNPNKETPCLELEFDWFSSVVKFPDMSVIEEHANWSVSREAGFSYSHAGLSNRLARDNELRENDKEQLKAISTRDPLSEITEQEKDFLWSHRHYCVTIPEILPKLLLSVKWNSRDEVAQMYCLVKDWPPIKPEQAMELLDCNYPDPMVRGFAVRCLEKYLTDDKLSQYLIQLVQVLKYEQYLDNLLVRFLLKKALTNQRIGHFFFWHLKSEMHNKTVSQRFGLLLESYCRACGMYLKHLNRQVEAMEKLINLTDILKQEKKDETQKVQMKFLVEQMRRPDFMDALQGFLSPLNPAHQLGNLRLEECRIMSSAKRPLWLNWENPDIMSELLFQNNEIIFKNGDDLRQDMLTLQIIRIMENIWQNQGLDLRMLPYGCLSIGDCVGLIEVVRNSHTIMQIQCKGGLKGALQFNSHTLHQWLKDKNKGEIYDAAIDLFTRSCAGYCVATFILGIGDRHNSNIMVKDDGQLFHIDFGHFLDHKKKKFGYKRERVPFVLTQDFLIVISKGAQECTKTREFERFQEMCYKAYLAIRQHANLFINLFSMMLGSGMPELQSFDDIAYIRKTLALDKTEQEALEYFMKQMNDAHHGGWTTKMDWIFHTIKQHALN
T1 sequence (P27986 whole entry partner): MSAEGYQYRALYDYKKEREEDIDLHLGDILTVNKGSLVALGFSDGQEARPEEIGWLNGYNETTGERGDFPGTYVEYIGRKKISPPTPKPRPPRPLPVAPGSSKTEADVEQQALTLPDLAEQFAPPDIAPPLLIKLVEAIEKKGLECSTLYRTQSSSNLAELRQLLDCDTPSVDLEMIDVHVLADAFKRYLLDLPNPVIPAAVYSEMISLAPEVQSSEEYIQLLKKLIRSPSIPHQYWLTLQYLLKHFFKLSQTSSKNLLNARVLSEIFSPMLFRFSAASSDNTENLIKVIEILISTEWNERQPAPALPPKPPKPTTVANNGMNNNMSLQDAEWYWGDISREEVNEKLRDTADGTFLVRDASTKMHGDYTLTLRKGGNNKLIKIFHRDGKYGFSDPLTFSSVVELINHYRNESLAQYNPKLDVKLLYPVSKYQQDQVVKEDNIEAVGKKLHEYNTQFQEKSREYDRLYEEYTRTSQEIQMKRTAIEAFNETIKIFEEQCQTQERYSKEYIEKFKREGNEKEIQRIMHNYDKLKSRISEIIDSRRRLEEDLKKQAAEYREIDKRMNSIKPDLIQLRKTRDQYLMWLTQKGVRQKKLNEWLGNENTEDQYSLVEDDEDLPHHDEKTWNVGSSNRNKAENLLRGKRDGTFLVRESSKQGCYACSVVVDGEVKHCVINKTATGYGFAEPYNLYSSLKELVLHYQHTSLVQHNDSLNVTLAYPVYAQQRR

PI3K β (p110β/p85α) = target: T2, PI3K β (p110β/p85α) (Homo sapiens, UniProt P42338); test: PI 3-Kinase (human) HTRF assay, PI3K β; conditions: for pIC50: read-out: PI3K β IC50
T2 construct: purchased Upstate / Millipore Corporation
T2 sequence (P42338 whole entry): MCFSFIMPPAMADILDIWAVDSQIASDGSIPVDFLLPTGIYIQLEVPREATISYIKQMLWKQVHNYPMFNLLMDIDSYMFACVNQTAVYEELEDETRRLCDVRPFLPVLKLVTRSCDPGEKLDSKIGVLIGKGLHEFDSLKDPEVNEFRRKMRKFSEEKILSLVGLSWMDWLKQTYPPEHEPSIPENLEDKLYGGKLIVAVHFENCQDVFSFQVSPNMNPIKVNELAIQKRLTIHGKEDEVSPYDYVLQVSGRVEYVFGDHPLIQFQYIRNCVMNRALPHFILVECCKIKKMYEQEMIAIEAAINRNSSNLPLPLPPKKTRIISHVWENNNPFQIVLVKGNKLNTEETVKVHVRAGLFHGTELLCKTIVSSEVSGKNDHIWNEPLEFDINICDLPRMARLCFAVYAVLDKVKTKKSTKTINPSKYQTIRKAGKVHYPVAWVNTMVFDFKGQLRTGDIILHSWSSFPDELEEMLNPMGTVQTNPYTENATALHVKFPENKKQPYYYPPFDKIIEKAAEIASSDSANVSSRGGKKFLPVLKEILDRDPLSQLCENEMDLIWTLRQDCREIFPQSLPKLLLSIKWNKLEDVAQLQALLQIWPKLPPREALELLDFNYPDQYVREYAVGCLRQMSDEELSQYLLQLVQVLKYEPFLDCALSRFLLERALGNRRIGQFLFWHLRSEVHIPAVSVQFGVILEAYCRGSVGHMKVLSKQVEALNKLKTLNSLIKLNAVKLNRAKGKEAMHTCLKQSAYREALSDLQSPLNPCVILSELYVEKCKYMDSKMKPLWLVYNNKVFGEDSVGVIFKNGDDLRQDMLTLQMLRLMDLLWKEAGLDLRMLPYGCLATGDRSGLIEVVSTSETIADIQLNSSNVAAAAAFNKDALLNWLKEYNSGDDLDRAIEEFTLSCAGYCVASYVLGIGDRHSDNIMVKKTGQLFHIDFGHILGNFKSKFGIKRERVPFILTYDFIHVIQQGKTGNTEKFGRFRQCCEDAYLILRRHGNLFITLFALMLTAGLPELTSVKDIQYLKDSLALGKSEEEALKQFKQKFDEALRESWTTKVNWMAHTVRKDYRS
T2 sequence (P27986 whole entry partner): as the sequence (P27986 whole entry partner) above

PI3K γ (p110γ) = target: T3, PI3K γ (p110γ) (Homo sapiens, UniProt P48736); test: PI 3-Kinase (human) HTRF assay, PI3K γ; conditions: for pIC50: read-out: PI3K γ IC50
T3 construct: purchased Upstate / Millipore Corporation
T3 sequence (P48736 whole entry): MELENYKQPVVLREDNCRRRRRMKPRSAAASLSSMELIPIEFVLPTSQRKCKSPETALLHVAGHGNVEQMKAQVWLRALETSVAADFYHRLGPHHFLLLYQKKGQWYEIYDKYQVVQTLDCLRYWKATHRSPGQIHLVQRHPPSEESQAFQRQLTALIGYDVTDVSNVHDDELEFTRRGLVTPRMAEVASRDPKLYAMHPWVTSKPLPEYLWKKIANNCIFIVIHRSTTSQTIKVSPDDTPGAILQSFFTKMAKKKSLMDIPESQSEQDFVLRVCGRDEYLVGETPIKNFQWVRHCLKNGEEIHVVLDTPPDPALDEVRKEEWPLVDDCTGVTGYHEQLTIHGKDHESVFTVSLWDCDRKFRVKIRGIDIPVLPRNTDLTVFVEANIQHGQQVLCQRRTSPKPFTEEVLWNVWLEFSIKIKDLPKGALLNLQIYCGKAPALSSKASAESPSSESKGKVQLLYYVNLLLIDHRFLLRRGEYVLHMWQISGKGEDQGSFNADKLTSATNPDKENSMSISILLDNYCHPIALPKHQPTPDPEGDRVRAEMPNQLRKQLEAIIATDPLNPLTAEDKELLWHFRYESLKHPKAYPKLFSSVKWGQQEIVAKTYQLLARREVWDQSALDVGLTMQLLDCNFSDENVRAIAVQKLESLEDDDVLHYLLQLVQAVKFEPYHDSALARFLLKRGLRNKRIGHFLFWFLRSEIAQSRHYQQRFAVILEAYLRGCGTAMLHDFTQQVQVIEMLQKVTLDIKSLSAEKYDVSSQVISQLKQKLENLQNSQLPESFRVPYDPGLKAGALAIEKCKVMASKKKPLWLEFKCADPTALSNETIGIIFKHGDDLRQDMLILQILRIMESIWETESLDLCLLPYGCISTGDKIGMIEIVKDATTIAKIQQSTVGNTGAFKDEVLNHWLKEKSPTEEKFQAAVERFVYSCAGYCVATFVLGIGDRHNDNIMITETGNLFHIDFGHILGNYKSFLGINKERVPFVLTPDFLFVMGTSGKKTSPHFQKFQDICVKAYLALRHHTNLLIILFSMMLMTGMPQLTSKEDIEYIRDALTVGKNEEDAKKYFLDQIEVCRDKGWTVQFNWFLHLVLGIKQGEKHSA

PI3K δ = target: T4, PI3K δ (Homo sapiens, UniProt O00329); test: PI 3-Kinase (human) HTRF assay, PI3K δ
T4 construct: purchased Upstate / Millipore Corporation
T4 sequence (O00329 whole entry): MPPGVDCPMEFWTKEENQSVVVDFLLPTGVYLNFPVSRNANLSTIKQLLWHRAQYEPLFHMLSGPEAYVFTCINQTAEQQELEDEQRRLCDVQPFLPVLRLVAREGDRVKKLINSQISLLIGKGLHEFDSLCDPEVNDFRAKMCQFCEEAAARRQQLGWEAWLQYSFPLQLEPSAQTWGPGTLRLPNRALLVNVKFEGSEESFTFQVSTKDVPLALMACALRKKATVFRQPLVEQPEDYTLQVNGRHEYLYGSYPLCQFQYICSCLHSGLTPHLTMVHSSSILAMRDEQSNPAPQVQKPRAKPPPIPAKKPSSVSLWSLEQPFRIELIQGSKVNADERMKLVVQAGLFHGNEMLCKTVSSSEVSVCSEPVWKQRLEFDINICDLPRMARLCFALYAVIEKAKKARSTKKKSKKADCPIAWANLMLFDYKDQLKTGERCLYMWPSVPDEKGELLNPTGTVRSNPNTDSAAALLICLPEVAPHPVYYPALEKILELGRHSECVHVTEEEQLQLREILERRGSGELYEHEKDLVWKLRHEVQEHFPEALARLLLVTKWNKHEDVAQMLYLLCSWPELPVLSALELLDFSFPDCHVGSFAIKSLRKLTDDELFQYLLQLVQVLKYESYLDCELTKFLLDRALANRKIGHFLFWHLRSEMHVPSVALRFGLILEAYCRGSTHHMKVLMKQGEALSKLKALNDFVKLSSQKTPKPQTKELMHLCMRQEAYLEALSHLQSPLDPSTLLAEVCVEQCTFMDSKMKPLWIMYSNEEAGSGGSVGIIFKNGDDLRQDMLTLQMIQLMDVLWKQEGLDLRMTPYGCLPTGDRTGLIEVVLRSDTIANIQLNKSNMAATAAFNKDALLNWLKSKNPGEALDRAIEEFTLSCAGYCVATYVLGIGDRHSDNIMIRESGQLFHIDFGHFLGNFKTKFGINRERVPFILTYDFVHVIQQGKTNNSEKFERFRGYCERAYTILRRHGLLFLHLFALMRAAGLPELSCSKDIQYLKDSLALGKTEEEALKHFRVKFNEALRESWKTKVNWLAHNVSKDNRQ
T4 sequence (P27986 whole entry partner): as the sequence (P27986 whole entry partner) above

Compound | pIC50 (PI3K α (p110α/p85α)) | pIC50 (PI3K β (p110β/p85α)) | pIC50 (PI3K γ (p110γ)) | pIC50 (PI3K δ; read-out: PI3K δ IC50) | IC50 (PI3K γ (p110γ); PI3K γ IC50 (nM)) | IC50 (PI3K β (p110β/p85α); PI3K β IC50 (nM)) | pIC50 (PI3K δ)
COC1CN(C(=O)c2cnc3ccc(-c4ccc5oc(N)nc5c4)cn23)C1 [Compound 467] | > 7.00 | > 5.00 | > 7.00 | > 5.00 |  |  | 
Nc1nc2cc(-c3ccc4ncc(C(=O)N5CC(F)C5)n4c3)ccc2o1 [Compound 468] | > 7.00 | > 5.00 | > 7.00 | < 5.00 |  |  | 
Nc1nc2cc(-c3ccc4ncc(C(=O)N5CC(N6CC[C@H](O)C6)C5)n4c3)ccc2o1 [Compound 469] | > 7.00 | > 5.00 | > 6.00 | > 5.00 |  |  | 
Nc1nc2cc(-c3ccc4ncc(C(=O)N5CCC(F)(F)C5)n4c3)ccc2o1 [Compound 471] | > 7.00 | < 5.00 | > 7.00 | < 5.00 |  |  | 
Nc1nc2cc(-c3ccc4ncc(C(=O)N5CC(F)(F)C5)n4c3)ccc2o1 [Compound 473] | > 7.00 | < 5.00 | > 7.00 | < 5.00 |  |  | 
Nc1nsc2c(-c3ccc4ncc(C(=O)N5CCOCC5)n4c3)cccc12 [Compound 474] | > 5.00 | < 5.00 | < 5.00 | < 5.00 |  |  | 
Nc1nc2cc(-c3ccc4ncc(C(=O)N5CC[C@H](F)C5)n4c3)ccc2o1 [Compound 476] | > 7.00 | < 5.00 | > 7.00 | < 5.00 |  |  | 
Nc1nc2cc(-c3ccc4ncc(C(=O)N5CC(n6cccn6)C5)n4c3)ccc2o1 [Compound 479] | > 7.00 | < 5.00 | > 6.00 | > 5.00 |  |  | 
Nc1nc2cc(-c3ccc4ncc(C(=O)N5C6CCC5COC6)n4c3)ccc2o1 [Compound 480] | > 7.00 | < 5.00 |  | > 5.00 | < 1000 nM |  | 
C[C@H]1COCCN1C(=O)c1cnc2ccc(-c3ccc4oc(N)nc4c3)cn12 [Compound 483] | > 7.00 | > 5.00 | > 5.00 | < 5.00 |  |  | 
Nc1nc2cccc(-c3ccc4ncc(C(=O)N5CCOCC5)n4c3)c2o1 [Compound 484] | > 6.00 | < 5.00 | < 5.00 | < 5.00 |  |  | 
Nc1nc2cccc(-c3ccc4ncc(C(=O)N5CCOCC5)n4c3)c2s1 [Compound 485] | > 5.00 | < 5.00 | < 5.00 | < 5.00 |  |  | 
CNc1noc2cc(-c3ccc4ncc(C(=O)N5CCOCC5)n4c3)ccc12 [Compound 486] | > 5.00 | < 5.00 | > 5.00 | < 5.00 |  |  | 
Nc1noc2cc(-c3ccc4ncc(C(=O)N5CCOCC5)n4c3)ccc12 [Compound 488] | < 5.00 | < 5.00 | < 5.00 | < 5.00 |  |  | 
Nc1nsc2cc(-c3ccc4ncc(C(=O)N5CCOCC5)n4c3)ccc12 [Compound 489] | > 5.00 | < 5.00 | < 5.00 | < 5.00 |  |  | 
Nc1noc2c(-c3ccc4ncc(C(=O)N5CCOCC5)n4c3)cccc12 [Compound 491] | < 5.00 | < 5.00 | < 5.00 | < 5.00 |  |  | 
Nc1nc2cc(-c3ccc4ncc(C(=O)N5CCn6cncc6C5)n4c3)ccc2o1 [Compound 493] | > 7.00 | > 6.00 | > 5.00 | < 5.00 |  |  | 
Nc1nc2cc(-c3ccc4ncc(C(=O)N5CC6(C5)OCCO6)n4c3)ccc2o1 [Compound 494] | > 7.00 |  | > 6.00 |  |  | < 10000 nM | < 5.00
C[C@@H]1COCCN1C(=O)c1cnc2ccc(-c3ccc4oc(N)nc4c3)cn12 [Compound 495] | > 7.00 | > 5.00 | > 6.00 | < 5.00 |  |  | 
CNc1nsc2cc(-c3ccc4ncc(C(=O)N5CCOCC5)n4c3)ccc12 [Compound 497] | < 5.00 | < 5.00 | < 5.00 | < 5.00 |  |  | 

Compound | pIC50 (PI3K α (p110α/p85α)) | pIC50 (PI3K β (p110β/p85α)) | pIC50 (PI3K γ (p110γ)) | pIC50 (PI3K δ; read-out: PI3K δ IC50) | IC50 (PI3K γ (p110γ); PI3K γ IC50 (nM)) | IC50 (PI3K β (p110β/p85α); PI3K β IC50 (nM)) | pIC50 (PI3K δ)
Nc1nc2cc(-c3ccc4ncc(C(=O)N5CCC(N6CC(F)(F)C6)C5)n4c3)ccc2o1 (stereo not drawn) [Compound 498] | > 6.00 | < 5.00 | > 5.00 | < 5.00 |  |  | 
Nc1nc2cc(-c3ccc4ncc(C(=O)N5CCC6(C5)OCCO6)n4c3)ccc2o1 [Compound 499] | > 6.00 | < 5.00 | > 5.00 | < 5.00 |  |  | 
Nc1nc2cc(-c3ccc4ncc(C(=O)N5CCC(N6CCC(F)(F)C6)C5)n4c3)ccc2o1 (stereo not drawn) [Compound 500] | > 6.00 | < 5.00 | > 5.00 | > 5.00 |  |  | 
Nc1nc2cc(-c3ccc4ncc(C(=O)N5CCC(F)(F)CC5)n4c3)ccc2o1 [Compound 501] | > 6.00 | < 5.00 | > 5.00 | < 5.00 |  |  | 
Nc1nc2cc(-c3ccc4ncc(C(=O)N5CC(N6CCC(F)(F)C6)C5)n4c3)ccc2o1 [Compound 502] | > 7.00 | < 5.00 | > 6.00 | > 5.00 |  |  | 
Nc1nc2cc(-c3ccc4ncc(C(=O)N5CCC(F)CC5)n4c3)ccc2o1 [Compound 503] | > 6.00 | < 5.00 | > 7.00 | < 5.00 |  |  | 
Nc1nc2cc(-c3ccc4ncc(C(=O)N5CC6CCC(C5)O6)n4c3)ccc2o1 [Compound 504] | > 6.00 | > 5.00 | > 7.00 | < 5.00 |  |  | 
O=C(c1cnc2ccc(-c3ccc4c(Nc5ccccc5)nsc4c3)cn12)N1CCOCC1 [Compound 505] | < 5.00 | < 5.00 | < 5.00 | < 5.00 |  |  | 
O=C(c1cnc2ccc(-c3cncc4[nH]ncc34)cn12)N1CCOCC1 [Compound 506] | > 7.00 | < 5.00 | < 5.00 | < 5.00 |  |  | 
Cc1cc2ncc(C(=O)N3CCOCC3)n2cc1-c1ccc2oc(N)nc2c1 [Compound 507] | < 5.00 | < 5.00 | < 5.00 | < 5.00 |  |  | 
C[C@@H]1CN(C2CN(C(=O)c3cnc4ccc(-c5ccc6oc(N)nc6c5)cn34)C2)CCN1C [Compound 508] | > 7.00 | > 5.00 | > 5.00 | > 6.00 |  |  | 
O=C(c1cnc2ccc(-c3ccc4c(Nc5ccccc5)noc4c3)cn12)N1CCOCC1 [Compound 509] | < 5.00 | < 5.00 | < 5.00 | < 5.00 |  |  | 
C[C@H]1CN(C2CN(C(=O)c3cnc4ccc(-c5ccc6oc(N)nc6c5)cn34)C2)CCN1 [Compound 510] | > 7.00 | > 5.00 | > 5.00 | > 6.00 |  |  | 
CC1(C)CN(C(=O)c2cnc3ccc(-c4ccc5oc(N)nc5c4)cn23)CCO1 [Compound 513] | > 6.00 | < 5.00 | > 5.00 | < 5.00 |  |  | 
CC1(C)CN(C2CN(C(=O)c3cnc4ccc(-c5ccc6oc(N)nc6c5)cn34)C2)CCN1 [Compound 515] | > 7.00 | > 5.00 | > 6.00 | > 7.00 |  |  | 
O=C(c1cnc2ccc(-c3cnc(Cl)c4[nH]ncc34)cn12)N1CCOCC1 [Compound 516] | > 6.00 | < 5.00 | < 5.00 | < 5.00 |  |  | 
COc1ncc(-c2ccc3ncc(C(=O)N4CCOCC4)n3c2)c2cn[nH]c12 [Compound 517] | > 6.00 | < 5.00 | > 5.00 | > 5.00 |  |  | 
CN1CCN(n2cnc3ccc(-c4ccc5oc(N)nc5c4)cc3c2=O)CC1 [Compound 518] | > 6.00 | < 5.00 | < 5.00 | < 5.00 |  |  | 
CC(C)N1CCC(n2cnc3ccc(-c4cncc(NS(=O)(=O)c5ccc(F)cc5F)c4)cc3c2=O)CC1 [Compound 519] | > 6.00 | > 5.00 | > 6.00 | > 5.00 |  |  | 
